Laboratory results from PubChem BioAssay AID248 (DTP/NCI, 2004).
Inconclusive results and toxic doses are left out. Cut-off read from the data, not from the text of the source: active = T/C of 150% or more; inactive = T/C below 125%.

Test system: L1210 leukemia ip in BDF1 mice, survival T/C
Assay: NCI In Vivo Anticancer Drug Screen. Data for tumor model L1210 Leukemia (intraperitoneal) in B6D2F1 (BDF1) mice
Conditions: endpoint: mean survival time, higher = longer survival
Method in brief: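 Transplanted-tumor mice were given test agent; controls received vehicle only. Survival readings from the two groups were divided (treated over control).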

[1] = dose: 100.0 mg/kg/injection, schedule: Q04DX003 (ip), vehicle: Klucel (hydroxypropylcellulose) (HPC)
[2] = dose: 200.0 mg/kg/injection, schedule: Q04DX003 (ip), vehicle: Klucel (hydroxypropylcellulose) (HPC)
[3] = dose: 50.0 mg/kg/injection, schedule: Q01DX001 (ip), vehicle: saline
[4] = dose: 100.0 mg/kg/injection, schedule: Q01DX001 (ip), vehicle: saline
[5] = dose: 200.0 mg/kg/injection, schedule: Q01DX001 (ip), vehicle: saline
[6] = dose: 400.0 mg/kg/injection, schedule: Q01DX001 (ip), vehicle: saline

Measured: T/C

CCCCCC(C[N+](C)(C)C)C(=O)/C=C/c1ccc(Cl)cc1 (stereo not given)
inactive: [1] 96 % of control | [2] 106 % of control

CC(C)C(=O)c1ccc(-c2ccccc2)cc1
inactive: dose: 25.0 mg/kg/injection, schedule: Q01DX009 (ip), vehicle: water 101 % of control | dose: 50.0 mg/kg/injection, schedule: Q01DX009 (ip), vehicle: water 106 % of control | dose: 100.0 mg/kg/injection, schedule: Q01DX009 (ip), vehicle: water 98 % of control | dose: 200.0 mg/kg/injection, schedule: Q01DX009 (ip), vehicle: water 95 % of control | dose: 400.0 mg/kg/injection, schedule: Q01DX009 (ip), vehicle: water 93 % of control

Clc1nc(Cl)c(CBr)c(Cl)n1
inactive: dose: 1.0 mg/kg/injection, schedule: Q01DX Z (ip), vehicle: carboxymethylcellulose (CMC) 96 % of control | dose: 2.0 mg/kg/injection, schedule: Q01DX Z (ip), vehicle: carboxymethylcellulose (CMC) 96 % of control | dose: 4.0 mg/kg/injection, schedule: Q01DX Z (ip), vehicle: carboxymethylcellulose (CMC) 96 % of control | dose: 8.0 mg/kg/injection, schedule: Q01DX Z (ip), vehicle: carboxymethylcellulose (CMC) 94 % of control | dose: 10.0 mg/kg/injection, schedule: Q01DX001 (ip), vehicle: carboxymethylcellulose (CMC) 96 % of control | dose: 16.0 mg/kg/injection, schedule: Q01DX009 (ip), vehicle: carboxymethylcellulose (CMC) 103 % of control | dose: 20.0 mg/kg/injection, schedule: Q01DX001 (ip), vehicle: carboxymethylcellulose (CMC) 93 % of control | dose: 40.0 mg/kg/injection, schedule: Q01DX001 (ip), vehicle: carboxymethylcellulose (CMC) 93 % of control

O=C(COc1ccc(Cl)cc1)C1CSc2ccc3ccccc3c21 (stereo not given)
inactive: dose: 100.0 mg/kg/injection, schedule: Q04DX003 (ip), vehicle: saline sonified 88 % of control | dose: 200.0 mg/kg/injection, schedule: Q04DX003 (ip), vehicle: saline sonified 89 % of control | dose: 400.0 mg/kg/injection, schedule: Q04DX003 (ip), vehicle: saline sonified 88 % of control

NNC(=O)c1ccccc1O
inactive: dose: 50.0 mg/kg/injection, schedule: Q01DX001 (ip), vehicle: other 105 % of control | dose: 50.0 mg/kg/injection, schedule: Q01DX009 (ip), vehicle: saline with Tween-80 90 % of control | dose: 100.0 mg/kg/injection, schedule: Q01DX001 (ip), vehicle: other 100 % of control | dose: 100.0 mg/kg/injection, schedule: Q01DX009 (ip), vehicle: saline with Tween-80 97 % of control | dose: 200.0 mg/kg/injection, schedule: Q01DX001 (ip), vehicle: other 97 % of control | dose: 200.0 mg/kg/injection, schedule: Q01DX009 (ip), vehicle: saline with Tween-80 102 % of control

O=C(NCCF)NC1CCC(C(=O)O)CC1 (stereo not given)
inactive: [3] 111 % of control | [4] 107 % of control | [5] 96 % of control

O=C(Nc1ccccc1)Oc1cccc2cccnc12
inactive: dose: 50.0 mg/kg/injection, schedule: Q04DX003 (ip), vehicle: Klucel (hydroxypropylcellulose) (HPC) 100 % of control | [1] 105 % of control | [2] 97 % of control

O=C(Cc1ccccc1)ONC(CCCCNC(=O)OCc1ccccc1)C(=O)Nc1ccc(Cc2ccc(NC(=O)C(CCCCNC(=O)OCc3ccccc3)NC(=O)OCc3ccccc3)cc2)cc1 (stereo not given)
inactive: [3] 95 % of control | [4] 95 % of control | [5] 95 % of control | [6] 95 % of control

O=P(CCc1ccccc1)(OCCCl)OCCCl
inactive: dose: 100.0 mg/kg/injection, schedule: Q04DX002 (ip), vehicle: saline with Tween-80 99 % of control | dose: 200.0 mg/kg/injection, schedule: Q04DX002 (ip), vehicle: saline with Tween-80 96 % of control | dose: 400.0 mg/kg/injection, schedule: Q04DX002 (ip), vehicle: saline with Tween-80 92 % of control

CNC(=S)N/N=C/C(CO)=N\NC(=S)NC
inactive: dose: 50.0 mg/kg/injection, schedule: Q01DX001 (ip), vehicle: carboxymethylcellulose (CMC) 101 % of control | dose: 100.0 mg/kg/injection, schedule: Q01DX001 (ip), vehicle: carboxymethylcellulose (CMC) 103 % of control | dose: 200.0 mg/kg/injection, schedule: Q01DX001 (ip), vehicle: carboxymethylcellulose (CMC) 112 % of control | dose: 400.0 mg/kg/injection, schedule: Q01DX001 (ip), vehicle: carboxymethylcellulose (CMC) 97 % of control

OCCc1ccc[nH]1
inactive: dose: 75.0 mg/kg/injection, schedule: Q01DX001 (ip), vehicle: saline 105 % of control | dose: 150.0 mg/kg/injection, schedule: Q01DX001 (ip), vehicle: saline 105 % of control | dose: 300.0 mg/kg/injection, schedule: Q01DX001 (ip), vehicle: saline 105 % of control

CN(C)C1=CC(=O)C(N(C)C)=CC1=O
inactive: dose: 100.0 mg/kg/injection, schedule: Q01DX001 (ip), vehicle: Klucel (hydroxypropylcellulose) (HPC) 110 % of control | dose: 200.0 mg/kg/injection, schedule: Q01DX001 (ip), vehicle: Klucel (hydroxypropylcellulose) (HPC) 112 % of control | dose: 400.0 mg/kg/injection, schedule: Q01DX001 (ip), vehicle: Klucel (hydroxypropylcellulose) (HPC) 105 % of control

Cc1cc(C)c2c(c1)NP(=S)(c1ccccc1)N2 (stereo not given)
inactive: dose: 75.0 mg/kg/injection, schedule: Q04DX002 (ip), vehicle: gum acacia 93 % of control | dose: 150.0 mg/kg/injection, schedule: Q04DX002 (ip), vehicle: gum acacia 93 % of control | dose: 300.0 mg/kg/injection, schedule: Q04DX002 (ip), vehicle: gum acacia 93 % of control

O=Cc1cc(=O)[nH]c(=O)[nH]1
inactive: [3] 109 % of control | [4] 109 % of control | [5] 105 % of control | [6] 97 % of control

O=[N+]([O-])c1cccc2c([N+](=O)[O-])cccc12
inactive: dose: 100.0 mg/kg/injection, schedule: Q01DX009 (ip), vehicle: saline sonified 107 % of control | [1] 95 % of control | dose: 200.0 mg/kg/injection, schedule: Q01DX009 (ip), vehicle: saline sonified 101 % of control | [2] 92 % of control | dose: 400.0 mg/kg/injection, schedule: Q01DX009 (ip), vehicle: saline sonified 109 % of control | dose: 400.0 mg/kg/injection, schedule: Q04DX003 (ip), vehicle: Klucel (hydroxypropylcellulose) (HPC) 90 % of control
